Measurements published in patent US10358464B2, “Specific binding sites in collagen for integrins and use thereof” (The Texas A&M University System, priority 2005, dated 2019).
Non-standard residues stand in square brackets, D forms with d. Residues, ends and D or L forms follow the SMILES beside them. Hyp = O=C(O)[C@@H]1C[C@@H](O)CN1

What was measured:
[1] = target: T1, α2I binding to type III collagen (Homo sapiens, UniProt P17301); test: Competition ELISA, inhibition of I domain binding to type III collagen; details: 100 μM peptide, 5 μM α2I, type III procollagen-coated wells
T1 construct: recombinant I domains from integrins α1 and α2 (α1I and α2I); made in house

[2] = target: α2I (Homo sapiens, UniProt P17301); test: SPR, I domain binding to immobilized synthetic collagen peptide
[3] = test system: MRC-5 cells; test: Cell attachment assay on coated substrates; assay type: cell-based, human; details: room temperature
Description: Reagents and Cell Culture. The human recombinant mature type III collagen used for cell attachment assays was purchased from FibroGen. All cell culture media components were purchased from Invitrogen. The human lung fibroblast cell line MRC-5 was purchased from American Type Culture Collection (ATCC) (Manassas, Va.). The cells were cultured and passaged in Dulbecco's modified Eagle's medium (DMEM) supplemented with 10% fetal bovine serum, 100 unit/ml penicillin and 100 μg/ml streptomycin. The cells were grown to subconfluence and passaged every 2-3 days.
Cell attachment assay. MRC-5 cells were starved overnight in serum deficient DMEM containing penicillin and streptomycin, then detached using 1 mM EDTA and 0.025% trypsin at 37° C. for 2 minutes. The cells were washed with PBS and resuspended in DMEM containing 0.2% BSA supplemented with 2 mM MgCl2. 100 μl of the cell suspension (˜1.5×10^5 cells/ml) were added to the microtiter wells coated with different concentrations of collagen or collagen peptides and blocked with PBS containing 0.5% (w/v) BSA. After incubation at room temperature for 45 min, the wells were washed with PBS. Attached cells were fixed with 3% p-formaldehyde for 10 min at room temperature. Following washing with cold Tris-buffered saline (TBS), pH 7.4, cells were fixed again in 20% methanol for 10 min and stained with 0.5% crystal violet for 5 min. The wells were thoroughly washed with distilled water and air-dried. Sodium citrate (0.1 M) was then added to the wells to dissolve the dye and the absorbance at 590 nm was measured. The maximum cell attachment on type III collagen was set to 100% and, residual attachment on BSA was set to 0%.
Adhesion of MRC-5 cells to peptide#1 (SEQ ID NO: 15) substrates. […] Wells in 96-well plates were coated with increasing concentrations of type III collagen, peptide #1 (SEQ ID NO: 15) or #2 (SEQ ID NO: 16) and 1.5×10^4 MRC-5 cells were added to each well. The plate was incubated for 45 min at room temperature and adhering cells were quantified as described herein.

[4] = target: T2, α1I binding to type III collagen (Homo sapiens, UniProt P56199); test: Competition ELISA, inhibition of I domain binding to type III collagen; details: 100 μM peptide, 0.5 μM α1I, type III procollagen-coated wells
T2 construct: recombinant I domains from integrins α1 and α2 (α1I and α2I); made in house

[5] = CD temperature-dependent denaturation of triple helix; assay type: physicochemical; details: CD ellipticity at 225 nm, 20° C./hr, Boltzmann sigmoidal fit
Description: Circular Dichroism (CD) Spectroscopy. Synthetic collagen peptides were analyzed by CD spectroscopy, as described previously (18) with the following modifications. Briefly, peptides were dissolved in HBS to a concentration of 50 μM. CD spectra were collected on a Jasco J720 spectropolarimeter (Tokyo, Japan) from 190 to 240 nm, with bandwidth of 1 nm and integrated for 1 s at 0.2 nm intervals. Samples were measured at room temperature using cuvettes with 0.02 cm path length. For temperature-dependent denaturation analysis, […] of peptides were added to a thermostatically controlled cuvette with a 0.5 cm path length. Thermal transition profiles were recorded at 225 nm as described above with a temperature slope of 20° C./hr. To calculate the temperature melting points, the thermal transition profiles were fitted with Boltzmann sigmoidal model using the GraphPad Prism™ software (GraphPad Software Inc., San Diego, Calif.).

[6] = target: α1I (Homo sapiens, UniProt P56199); test: SPR, I domain binding to immobilized synthetic collagen peptide
[7] = 30 nM I domain, 2 mM EDTA versus 1 mM MgCl2

α1I, sequence (P56199 161-360 limits assumed): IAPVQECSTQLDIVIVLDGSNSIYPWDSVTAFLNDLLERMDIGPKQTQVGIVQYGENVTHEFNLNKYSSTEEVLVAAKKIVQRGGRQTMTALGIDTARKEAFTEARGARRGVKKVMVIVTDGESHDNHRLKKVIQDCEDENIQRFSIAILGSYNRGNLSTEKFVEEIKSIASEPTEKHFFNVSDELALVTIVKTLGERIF
α2I, sequence (P17301 188-365 limits assumed): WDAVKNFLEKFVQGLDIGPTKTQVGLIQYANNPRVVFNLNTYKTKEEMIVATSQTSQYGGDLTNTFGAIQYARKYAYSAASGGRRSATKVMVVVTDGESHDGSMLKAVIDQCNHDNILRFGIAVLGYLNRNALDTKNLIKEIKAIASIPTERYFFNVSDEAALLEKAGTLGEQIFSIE
T2 sequence (P56199 161-360 limits assumed): as the sequence (P56199 161-360 limits assumed) above
T1 sequence (P17301 188-365 limits assumed): as the sequence (P17301 188-365 limits assumed) above

- inhibition at 100 µM [1]: 80%
- Kd [2]: 283 nM
- koff [2]: 0.012 s⁻¹
- kon [2]: 44000 M⁻¹ s⁻¹
- binding in the presence of EDTA [2, 7]: completely abolished binding
- dissociate rate ([2]; 15° C., 1:1 binding model): 12 s^−1×10^3
- inhibition at 100 µM [4]: 100%
- melting temperature (Tm) of triple helix [5]: 43 °C
- Kd [6]: 23 nM
- koff [6]: 0.0013 s⁻¹
- kon [6]: 56000 M⁻¹ s⁻¹
- binding in the presence of EDTA [6, 7]: completely abolished binding
- dissociate rate ([6]; 15° C., 1:1 binding model): 1.3 s^−1×10^3
Compound: CC(C)C[C@H](NC(=O)CNC(=O)[C@H](CCCNC(=N)N)NC(=O)[C@H](CCC(=O)O)NC(=O)CNC(=O)[C@@H]1C[C@@H](O)CN1C(=O)[C@H](CCCNC(=N)N)NC(=O)CNC(=O)[C@@H]1C[C@@H](O)CN1C(=O)[C@H](CCCNC(=N)N)NC(=O)CNC(=O)[C@@H]1C[C@@H](O)CN1C(=O)[C@@H]1CCCN1C(=O)CNC(=O)[C@@H]1C[C@@H](O)CN1C(=O)[C@@H]1CCCN1C(=O)CNC(=O)[C@@H]1C[C@@H](O)CN1C(=O)[C@@H]1CCCN1C(=O)CN)C(=O)N1C[C@H](O)C[C@H]1C(=O)NCC(=O)N1CCC[C@H]1C(=O)N1C[C@H](O)C[C@H]1C(=O)NCC(=O)N1CCC[C@H]1C(=O)N1C[C@H](O)C[C@H]1C(=O)NCC(=O)N1CCC[C@H]1C(=O)N1C[C@H](O)C[C@H]1C(N)=O [peptide #1, (GPO)3GROGROGERGLO(GPO)3] (H-GP[Hyp]GP[Hyp]GP[Hyp]GR[Hyp]GR[Hyp]GERGL[Hyp]GP[Hyp]GP[Hyp]GP[Hyp]-NH2; N-terminus and C-terminus assumed)
- adhesion of MRC-5 cells to coated substrate ([3]; increasing coating concentrations, 1.5×10^4 cells per well, 45 min): could support adhesion of MRC-5 cells in a dose-dependent manner
- cell spreading on coated substrate ([3]; 1.5 hrs (data not shown)): Considerable cell spreading
